For data set [1], the target named is T1, Histamine H3 receptor (Homo sapiens, UniProt Q9Y5N1). The arrangement: species or system Sf9.
Data set [2] deals with T2, Histamine H4 receptor (Homo sapiens, UniProt Q9H3N8). The arrangement: species or system Sf9.
The species entered for data set [3] is Homo sapiens. The arrangement: reference not given here.
Data set [4] concerns the target T1, Histamine H3 receptor. The arrangement: species or system Sf9. The source holds these as a separate data set.
Data set [5] concerns the target T1, Histamine H3 receptor. Description: Binding affinity to human recombinant NLuc/GPCR-fused H3R expressed in HEK293T cells measured after 30 mins by furimazine substrate based BRET assay. It is filed as cell-based, HEK-293T. On the technique in general: Bioluminescence resonance energy transfer reports proximity on the nanometre scale.
The target in data set [6] is T1, Histamine H3 receptor. Description: Antagonist activity at human H3R expressed in HEK293T-SP-FLAG-hH3R-CRE-CBR cells assessed as reduction in histamine-induced inhibition of forskolin stimulated luciferase activity preincubated for 15 mins followed by forskolin and histamine addition by luciferase reporter gene assay. It is filed as functional, cell-based.
Data set [7] concerns the target Histamine H1 receptor (Homo sapiens, UniProt P35367). The data set is described as follows: Displacement of [3H]pyrilamine from human recombinant H1R expressed in baculovirus infected Sf9 insect cell membranes co-expressing RGS4. (In a radioligand displacement assay an active substance lowers the binding of a labelled ligand.)
The nature of data set [8]: Chemical stability of the compound in pH 7.4 phosphate buffered saline at 200 uM incubated for >= 1 hr in Sigmacote-treated 1.5 mL microtubes by RP-HPLC method. It is filed as physicochemical. The conditions noted are these: buffer, pH 7.4, 1 h.
The target of data set [9] is T1, Histamine H3 receptor. Description: Binding affinity to human recombinant NLuc/GPCR-fused H3R expressed in HEK293T cells assessed as dissociation rate constant measured after 30 mins in presence of thioperamide by furimazine substrate based BRET assay. Type of data set: cell-based. The conditions noted are these: HEK-293T.
Data set [10] has as its target T1, Histamine H3 receptor. The data set is described as follows: Binding affinity to human recombinant NLuc/GPCR-fused H3R expressed in HEK293T cells assessed as dissociation half life measured after 30 mins in presence of thioperamide by furimazine substrate based BRET assay. Type of data set: cell-based. The conditions noted are these: HEK-293T.
A short description of data set [11]: Chemical stability of the compound in pH 7.4 phosphate buffered saline at 200 uM incubated for 5 to 6 hrs in 96-well Primaria plates by RP-HPLC method. The conditions noted are these: buffer, pH 7.4, 200 µM. It is filed as physicochemical.
The target of data set [12] is T1, Histamine H3 receptor. The data set is described as follows: Binding affinity to human recombinant NLuc/GPCR-fused H3R expressed in HEK293T cells assessed as association rate constant measured after 30 mins by furimazine substrate based BRET assay. Type of data set: cell-based. The conditions noted are these: HEK-293T.
Data set [13] has as its target T1, Histamine H3 receptor. The data set is described as follows: Agonist activity at human H3R expressed in HEK293T-SP-FLAG-hH3R-CRE-CBR cells incubated for 5 hrs by luciferase reporter gene assay. Type of data set: functional, cell-based. In general terms: A reporter such as luciferase makes a cellular process visible.
Data set [14] can be described thus: Chemical stability of the compound in pH 7.4 phosphate buffered saline at 200 uM incubated for >= 1 hr in 1.5 mL microtubes by RP-HPLC method. Type of data set: physicochemical. The conditions noted are these: buffer, pH 7.4, 1 h.
The nature of data set [15]: Drug uptake in wild-type HEK293T cells at 200 nM measured after 20 mins by confocal microscopic analysis. Type of data set: ADME, cell-based. The conditions noted are these: human, hek-293t, 0.2 µM.
Data set [16] in a line: Chemical stability of the compound in pH 7.4 phosphate buffered saline at 200 uM incubated for 5 to 6 hrs in white 96-well cellGrade plates by RP-HPLC method. The conditions noted are these: buffer, pH 7.4, 200 µM. Type of data set: physicochemical.
Data set [17] has as its target T1, Histamine H3 receptor. The data set is described as follows: Binding affinity to human recombinant NLuc/GPCR-fused H3R expressed in HEK293T cells assessed as dissociation constant measured after 30 mins in presence of thioperamide by furimazine substrate based BRET assay. It is filed as cell-based, HEK-293T.
In data set [18] the target is T3, Histamine H4 receptor (Mus musculus, UniProt Q91ZY2).
T3 sequence (Q91ZY2 whole entry): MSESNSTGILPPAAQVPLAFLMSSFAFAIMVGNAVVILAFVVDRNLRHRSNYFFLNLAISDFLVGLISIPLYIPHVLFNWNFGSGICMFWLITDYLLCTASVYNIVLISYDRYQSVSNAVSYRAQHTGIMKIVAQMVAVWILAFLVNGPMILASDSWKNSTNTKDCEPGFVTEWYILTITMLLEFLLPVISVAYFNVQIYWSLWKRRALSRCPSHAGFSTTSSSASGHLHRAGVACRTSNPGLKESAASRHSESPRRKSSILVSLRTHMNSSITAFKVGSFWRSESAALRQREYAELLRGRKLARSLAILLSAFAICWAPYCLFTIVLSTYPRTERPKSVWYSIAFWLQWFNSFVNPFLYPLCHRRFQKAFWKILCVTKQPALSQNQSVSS
The data set is described as follows: Displacement of UR-DEBa176 from mouse recombinant H4R expressed in HEK293T-SF-His6-CRE-Luc cells. It is filed as cell-based.

Data set [19] deals with T3, Histamine H4 receptor. Description: Antagonist activity at mouse H4R expressed in HEK293 cells co-expressing ELucC/ELucN-beta-arrestin2 assessed as inhibition of histamine-induced beta-arrestin recruitment preincubated for 15 mins followed by histamine addition by luciferase reporter gene assay. Type of data set: cell-based.
Data set [20] addresses T3, Histamine H4 receptor. Description: Inhibition of UR-DEBa242 binding to mouse recombinant NLuc/GPCR-fused H4R expressed in HEK293T cells measured after 30 mins by furimazine substrate based BRET assay. Type of data set: cell-based, HEK-293T.
The target of data set [21] is T2, Histamine H4 receptor.
Data set [22] deals with T2, Histamine H4 receptor. The data set is described as follows: Inhibition of UR-DEBa242 binding to human recombinant NLuc/GPCR-fused H4R expressed in HEK293T cells measured after 30 mins by furimazine substrate based BRET assay. Type of data set: cell-based, HEK-293T.
Data set [23] has as its target T1, Histamine H3 receptor. The arrangement: species or system Sf9. This is another data set of the same source.
Data set [24] addresses T1, Histamine H3 receptor. The data set is described as follows: Inhibition of UR-DEBa242 binding to human recombinant NLuc/GPCR-fused H3R expressed in HEK293T cells measured after 30 mins by furimazine substrate based BRET assay. It is filed as cell-based, HEK-293T.
The target of data set [25] is T2, Histamine H4 receptor. The arrangement: species or system Sf9. This is another data set of the same source.

As usually defined, the Ki is a dissociation constant, usually derived from enzyme kinetics or from competition with a known ligand. As usually defined, the EC50 is the concentration giving half of the maximal effect.

Where only a bound is given, the exact number is not on record here.

T2 sequence (Q9H3N8 whole entry): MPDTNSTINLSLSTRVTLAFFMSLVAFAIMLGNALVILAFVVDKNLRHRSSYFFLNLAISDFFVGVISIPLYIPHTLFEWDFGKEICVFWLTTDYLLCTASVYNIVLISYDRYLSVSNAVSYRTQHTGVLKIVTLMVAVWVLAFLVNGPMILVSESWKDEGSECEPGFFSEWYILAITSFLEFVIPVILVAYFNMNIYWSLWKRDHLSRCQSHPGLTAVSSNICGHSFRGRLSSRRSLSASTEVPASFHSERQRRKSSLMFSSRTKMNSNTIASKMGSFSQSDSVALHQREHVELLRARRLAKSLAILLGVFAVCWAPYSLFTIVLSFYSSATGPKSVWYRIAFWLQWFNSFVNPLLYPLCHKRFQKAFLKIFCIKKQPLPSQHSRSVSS
T1 sequence (Q9Y5N1 whole entry): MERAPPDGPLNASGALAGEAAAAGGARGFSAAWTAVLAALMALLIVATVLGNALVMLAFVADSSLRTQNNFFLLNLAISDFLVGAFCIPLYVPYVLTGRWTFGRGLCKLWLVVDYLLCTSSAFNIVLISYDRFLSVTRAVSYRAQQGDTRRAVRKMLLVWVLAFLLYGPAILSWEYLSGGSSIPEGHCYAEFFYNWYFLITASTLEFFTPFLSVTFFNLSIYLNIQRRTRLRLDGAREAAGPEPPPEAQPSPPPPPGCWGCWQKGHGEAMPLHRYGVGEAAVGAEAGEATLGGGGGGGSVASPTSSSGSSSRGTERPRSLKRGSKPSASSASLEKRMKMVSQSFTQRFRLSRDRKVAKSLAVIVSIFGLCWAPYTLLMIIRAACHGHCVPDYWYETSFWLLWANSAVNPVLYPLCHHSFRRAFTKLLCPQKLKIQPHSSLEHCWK
Sequence of Histamine H1 receptor (P35367 whole entry): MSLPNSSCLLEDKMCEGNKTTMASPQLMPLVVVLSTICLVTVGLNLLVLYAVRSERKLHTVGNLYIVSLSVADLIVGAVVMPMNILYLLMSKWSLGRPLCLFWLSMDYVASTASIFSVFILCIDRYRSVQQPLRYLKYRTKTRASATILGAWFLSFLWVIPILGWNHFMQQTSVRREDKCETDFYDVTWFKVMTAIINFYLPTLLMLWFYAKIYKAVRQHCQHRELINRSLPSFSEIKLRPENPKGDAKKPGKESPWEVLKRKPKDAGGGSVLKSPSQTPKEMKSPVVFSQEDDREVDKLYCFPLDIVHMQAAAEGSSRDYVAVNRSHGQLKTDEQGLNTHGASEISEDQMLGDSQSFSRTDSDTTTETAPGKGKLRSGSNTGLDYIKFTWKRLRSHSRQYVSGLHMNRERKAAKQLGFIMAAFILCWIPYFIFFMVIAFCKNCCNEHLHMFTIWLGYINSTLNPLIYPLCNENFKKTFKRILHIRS

In turn, `Cc1cc(OCCC[n+]2c(C)cc(/C=C/C=C/c3ccc(N(C)C)cc3)cc2C)ccc1-c1nc2c(C)c(F)ccc2[nH]1` gave an inhibition constant Ki in data set [1] of 1620 nM.
`Cc1cc(/C=C/C=C/c2ccc(N(C)C)cc2)cc(C)[n+]1CCc1c[nH]cn1`: the values for the Ki in [2] and in [1] were 1950 nM and 851 nM, respectively. Moreover, the Ratio Ki in [3] came to 2.29.
In turn, `NCCCc1c[nH]cn1` had an inhibition constant (Ki) in data set [4] of 93.3 nM. For the same molecule, the Ratio Ki in data set [3] came to 0.34.
As for `Cc1cc(OCCCNC(=O)CCCCCNC(=O)COc2ccc(/C=C/C3=[N+]4C(=Cc5ccc(-c6ccc[nH]6)n5[B-]4(F)F)C=C3)cc2)ccc1-c1nc2c(C)c(F)ccc2[nH]1`, the Ki in [2] was 1820 nM; in [1] it was 501 nM.
With `Cc1cc(/C=C/C=C/c2ccc(N(C)C)cc2)cc(C)[n+]1CCCNCCc1c[nH]cn1`, the inhibitory constant (Ki) in [2] is 933 nM; in data set [1], 13.5 nM. The Ratio Ki in data set [3] worked out at 69.2.
In data set [1], `Cc1cc(/C=C/C=C/c2ccc(N(C)C)cc2)cc(C)[n+]1CCCc1c[nH]cn1` had a Ki of 11.7 nM.
With `Cc1cc(/C=C/C=C/c2ccc(N(C)C)cc2)cc(C)[n+]1CCCN1CCc2nc[nH]c2C1`, in [1], the Ki was 457 nM.
Turning to `Cc1cc(/C=C/C=C/c2ccc(N(C)C)cc2)cc(C)[n+]1CCCCCc1c[nH]cn1`, the Kd in [5] (read-out: Kd) is 0.97 nM; in data set [5] (read-out: pKd (converted)), 1.15 nM. In addition, the pK in [6] was 8.71. In addition, the values for the Ki in data set [7] and in [1] were over 4790 nM and 0.912 nM, respectively.
As to `Cc1cc(/C=C/C=C/c2ccc(N(C)C)cc2)cc(C)[n+]1CCCCc1c[nH]cn1.O=C(O)C(F)(F)F.O=C([O-])C(F)(F)F`, the Stability result in [8] is “Unstable”; in data set [11], “Stable”; in data set [14], “Unstable”; in data set [16], “Stable”. Moreover, the figures for the K in data set [9] and in data set [12] were 2.79 min⁻¹ and 1.06e+07 M⁻¹ s⁻¹, respectively. Also, the Kd in data set [5] (read-out: Kd) is 1.35 to 1.94 nM; in [5] (read-out: pKd (converted)) it was 1.66 nM; in data set [17] (read-out: Kd) it was 2.54 to 6.86 nM; in data set [17] (read-out: pKd (converted)) it was 4.68 nM. Also, the T1/2 in data set [10] was 15 s. Besides, the Ki is over 4790 nM in data set [7] and 2.51 nM in data set [1]. This molecule also gave an EC50 in [13] of 1.7 nM. For the same molecule, the Drug uptake result in [15] is given as “Active”.
Consider `NCCCCc1c[nH]cn1`, for which, in data set [3], the Ratio Ki worked out at 2.95.
Regarding `Cc1cc(OCCCNC(=O)CCCCCN2\C(=C/C=C/C=C/C3=[N+](CCCCS(=O)(=O)[O-])c4ccccc4C3(C)C)C(C)(C)c3ccccc32)ccc1-c1nc2c(C)c(F)ccc2[nH]1`, in data set [1], the Ki is 2400 nM.
Regarding `Cc1cc(OCCC[n+]2c(C)cc(/C=C/c3cc4c5c(c3)CCCN5CCC4)cc2C)ccc1-c1nc2c(C)c(F)ccc2[nH]1`, the Ki was 28200 nM in data set [2] and 20400 nM in [1].
Turning to `S=C(NC1CCCCC1)N1CCC(c2cnc[nH]2)CC1` [THIOPERAMIDE], the Ki is 79.4 nM in [18] and 66.1 nM in data set [20]. Besides, the EC50 in [19] is 28.2 nM.
Take `NC(=NCc1ccc(Cl)cc1)SCCCc1cnc[nH]1` [CLOBENPROPIT]: the inhibitory constant (Ki) in data set [18] was 158 nM; in data set [21] it was 39.8 nM; in data set [22], 77.6 nM; in data set [20], 123 nM.
With `CC(C)(C)CNc1nccc(N2CCc3nc[nH]c3C2)n1`, the Ki in data set [23] was 3.16 nM; in data set [24], 0.537 nM.
As for `NCCCCCc1c[nH]cn1`, the Ki is 631 nM in [25] and 37.2 nM in [4]. Further, the Ratio Ki in [3] was found to be 17.

Source of the values: ChEMBL document CHEMBL4602733 (J Med Chem, 2020).
